Data published in US11844868B2, “Dry powder composition for peroral administration” (VICORE PHARMA AB, priority 2020, dated 2023).
Each block holds one compound with its values, some of them ahead of it.

Key:
Type in all cases: physicochemical
[1] = Accelerated stability of C21/mannitol powder mixtures, 60° C. for 12 days
Method: C21 sodium salt was used together with 7 different types of mannitol from two different manufacturers.
C21 and mannitol were added to glass flasks and were mixed together using a Turbula mixer. At a mixing time of 30 minutes, each flask was sampled for homogeneity and related impurities were analysed.
An aliquot of each powder mixture was also subjected to 60° C. for 12 days in a stability analysis. The nominal content of C21 was 7.4% w/w (calculated as free C21) for all mannitol mixtures except one, where an additional strength of 14.8% w/w was also tested.

[2] = Stability of aqueous solutions of C21 (free C21 1 mg/mL in 0.9% NaCl pH 9.4; sodium salt likewise) under four storage conditions, HPLC; details: for light-induced degradation: aqueous solution, RT/light; for chemical stability: solution stored in dark at 5° C., RT and 40° C. for four weeks
Method: The stability of free C21 in 0.9% NaCl pH 9.4 was investigated.
Solutions of 1 mg/mL of C21 were studied for four weeks under four different storage conditions. The solution was filtered through a 0.22 sterile syringe filter to minimize bacterial growth during the stability test. The samples were analysed by HPLC for purity.
The results are summarised in Table 3 below, in which the amount of C21 is given as a percentage of the initial amount of drug. Solution pHs were also measured and are shown within parenthesis in Table 3.
The stability of the sodium salt of C21 was also investigated under the same storage conditions.
At the time for analysis of the one week samples, it was noted that the heating cabinet for storage of samples at 40° C. was broken. In view of this, these samples were thereafter kept at room temperature for three days.

[3] = Excipient compatibility study, 60° C. for 12 days (related impurities)
Method: The excipients used in the capsules in Comparative Example 3 above were evaluated along with some additional ones (see Table 8 below).
C21 (sodium salt) used in these experiments was ground and passed through a 300 μm sieve. Mixtures of each excipient and C21 were prepared by thorough mixing in the amounts specified in Table 8. The ratio of C21 to various fillers (D-mannitol, MCC, lactose monohydrate and HPMC) was adapted to give a volume equivalent to the larger part of a capsule.
Three capsules of each type were filled with C21. All preparations were stored under accelerated stability conditions at 60° C. for 12 days prior to analysis.
In addition to the disintegrants (sodium starch glycolate and croscarmellose sodium) mentioned above, crospovidone of two different types (Kollidon® CL (Type A), and Kollidon® CL-SF (Type B) (both BASF) were tested.
Mixtures of 130 mg crospovidone and 200 mg C21 were prepared and were thoroughly mixed using a Turbula mixer for 10 minutes. All of these preparations were analysed at time zero and after storage at accelerated stability conditions at 60° C. for 12 days.

[4] = Solubility of C21 sodium salt in aqueous vehicles
Method: In this experiment, C21 sodium salt (Syntagon AB) was added to the vehicle, small amounts at a time. About 20-30 mg of the sodium salt was easily dissolved in all the vehicles tested. Salt was continuously added to the same sample in an attempt to obtain a saturated solution. In this way, higher amounts, such as 40-60 mg/mL could be dissolved. The solubility is probably even higher than this in the vehicles tested, but this was not established in view of the limited amount of drug compound available.

Impurities ≥0.05% Formed: 1 [1]: 0.26 area %
Amount of Free C21, % of initial ([2]; 5° C., dark, 1 week): 108 % of initial
Solution pH (within parenthesis) ([2]; 5° C., dark, 1 week): 8.5
Amount of Free C21, % of initial ([2]; 5° C., dark, 2 weeks): 113 % of initial
Solution pH (within parenthesis) ([2]; 5° C., dark, 2 weeks): 8.4
Amount of Free C21, % of initial ([2]; 5° C., dark, 3 weeks): 113 % of initial
Solution pH (within parenthesis) ([2]; 5° C., dark, 3 weeks): 8.5
Amount of Free C21, % of initial ([2]; 5° C., dark, 4 weeks): 112 % of initial
Solution pH (within parenthesis) ([2]; 5° C., dark, 4 weeks): 8.5
Amount of Free C21, % of initial ([2]; 5° C., dark, Initial): 100 % of initial
Solution pH (within parenthesis) ([2]; 5° C., dark, Initial): 8.3
Amount of Free C21, % of initial ([2]; 40° C., dark, 1 week): 111 % of initial
Solution pH (within parenthesis) ([2]; 40° C., dark, 1 week): 8.6
Amount of Free C21, % of initial ([2]; 40° C., dark, 2 weeks): 111 % of initial
Solution pH (within parenthesis) ([2]; 40° C., dark, 2 weeks): 8.5
Amount of Free C21, % of initial ([2]; 40° C., dark, 3 weeks): 109 % of initial
Solution pH (within parenthesis) ([2]; 40° C., dark, 3 weeks): 8.7
Amount of Free C21, % of initial ([2]; 40° C., dark, 4 weeks): 118 % of initial
Solution pH (within parenthesis) ([2]; 40° C., dark, 4 weeks): 8.1
Amount of Free C21, % of initial ([2]; 40° C., dark, Initial): 100 % of initial
Solution pH (within parenthesis) ([2]; 40° C., dark, Initial): 8.3
Amount of Free C21, % of initial ([2]; RT, dark, 1 week): 115 % of initial
Solution pH (within parenthesis) ([2]; RT, dark, 1 week): 8.6
Amount of Free C21, % of initial ([2]; RT, dark, 2 weeks): 110 % of initial
Solution pH (within parenthesis) ([2]; RT, dark, 2 weeks): 8.8
Amount of Free C21, % of initial ([2]; RT, dark, 3 weeks): 111 % of initial
Solution pH (within parenthesis) ([2]; RT, dark, 3 weeks): 8.8
Amount of Free C21, % of initial ([2]; RT, dark, 4 weeks): 112 % of initial
Solution pH (within parenthesis) ([2]; RT, dark, 4 weeks): 8.2
Amount of Free C21, % of initial ([2]; RT, dark, Initial): 100 % of initial
Solution pH (within parenthesis) ([2]; RT, dark, Initial): 8.3
Amount of Free C21, % of initial ([2]; RT, light, 1 week): 108 % of initial
Solution pH (within parenthesis) ([2]; RT, light, 1 week): (8.4)
Amount of Free C21, % of initial ([2]; RT, light, 2 weeks): 96 % of initial
Solution pH (within parenthesis) ([2]; RT, light, 2 weeks): (8.0)
Amount of Free C21, % of initial ([2]; RT, light, 3 weeks): 72 % of initial
Solution pH (within parenthesis) ([2]; RT, light, 3 weeks): (8.3)
Amount of Free C21, % of initial ([2]; RT, light, 4 weeks): 9 % of initial
Solution pH (within parenthesis) ([2]; RT, light, 4 weeks): (7.3)
Amount of Free C21, % of initial ([2]; RT, light, Initial): 100 % of initial
Solution pH (within parenthesis) ([2]; RT, light, Initial): (8.3)
light-induced degradation [2]: light-induced degradation occurs
chemical stability [2]: chemically stable
Degradation: Sum of impurities (≥0.05%) [3]: 0.26%
Individual Impurity 1 [3]: 0.26 area %
degradation of C21 [3]: No degradation
amount that could be dissolved ([4]; salt continuously added, vehicles tested, saturation not established): 40 to 60 mg/mL
solubility compared with free C21 ([4]; similar experiment): considerably higher than free C21
Concentration (solubility) ([4]; vehicle 0.9% NaCl, pH 9.3): >40 mg/mL
Concentration (solubility) ([4]; vehicle H2O, pH 9.8): >65 mg/mL
Concentration (solubility) ([4]; vehicle PBS pH 7.4, measured pH 9.4): >40 mg/mL
SMILES: CCCCOC(=O)[N-]S(=O)(=O)c1sc(CC(C)C)cc1-c1ccc(Cn2ccnc2)cc1.[Na+] [C21 sodium salt]

Amount of Free C21, % of initial ([2]; 5° C., dark, 1 week): 101 % of initial
Solution pH (within parenthesis) ([2]; 5° C., dark, 1 week): 9.2
Amount of Free C21, % of initial ([2]; 5° C., dark, 2 weeks): 107 % of initial
Solution pH (within parenthesis) ([2]; 5° C., dark, 2 weeks): 9.2
Amount of Free C21, % of initial ([2]; 5° C., dark, 3 weeks): 108 % of initial
Solution pH (within parenthesis) ([2]; 5° C., dark, 3 weeks): 9.1
Amount of Free C21, % of initial ([2]; 5° C., dark, 4 weeks): 108 % of initial
Solution pH (within parenthesis) ([2]; 5° C., dark, 4 weeks): 9.2
Amount of Free C21, % of initial ([2]; 5° C., dark, Initial): 100 % of initial
Solution pH (within parenthesis) ([2]; 5° C., dark, Initial): 9.4
Amount of Free C21, % of initial ([2]; 40° C., dark, 1 week): 101 % of initial
Solution pH (within parenthesis) ([2]; 40° C., dark, 1 week): 9.0
Amount of Free C21, % of initial ([2]; 40° C., dark, 2 weeks): 111 % of initial
Solution pH (within parenthesis) ([2]; 40° C., dark, 2 weeks): 8.6
Amount of Free C21, % of initial ([2]; 40° C., dark, 3 weeks): 106 % of initial
Solution pH (within parenthesis) ([2]; 40° C., dark, 3 weeks): 8.7
Amount of Free C21, % of initial ([2]; 40° C., dark, 4 weeks): 107 % of initial
Solution pH (within parenthesis) ([2]; 40° C., dark, 4 weeks): 8.7
Amount of Free C21, % of initial ([2]; 40° C., dark, Initial): 100 % of initial
Solution pH (within parenthesis) ([2]; 40° C., dark, Initial): 9.4
Amount of Free C21, % of initial ([2]; RT, dark, 1 week): 97 % of initial
Solution pH (within parenthesis) ([2]; RT, dark, 1 week): (9.2)
Amount of Free C21, % of initial ([2]; RT, dark, 2 weeks): 109 % of initial
Solution pH (within parenthesis) ([2]; RT, dark, 2 weeks): (8.9)
Amount of Free C21, % of initial ([2]; RT, dark, 3 weeks): 105 % of initial
Solution pH (within parenthesis) ([2]; RT, dark, 3 weeks): (9.0)
Amount of Free C21, % of initial ([2]; RT, dark, 4 weeks): 106 % of initial
Solution pH (within parenthesis) ([2]; RT, dark, 4 weeks): (8.9)
Amount of Free C21, % of initial ([2]; RT, dark, Initial): 100 % of initial
Solution pH (within parenthesis) ([2]; RT, dark, Initial): (9.4)
Amount of Free C21, % of initial ([2]; RT, light, 1 week): 96 % of initial
Solution pH (within parenthesis) ([2]; RT, light, 1 week): (9.0)
Amount of Free C21, % of initial ([2]; RT, light, 2 weeks): 44 % of initial
Solution pH (within parenthesis) ([2]; RT, light, 2 weeks): (8.0)
Amount of Free C21, % of initial ([2]; RT, light, 3 weeks): 96 % of initial
Solution pH (within parenthesis) ([2]; RT, light, 3 weeks): (8.5)
Amount of Free C21, % of initial ([2]; RT, light, 4 weeks): 13 % of initial
Solution pH (within parenthesis) ([2]; RT, light, 4 weeks): (7.7)
Amount of Free C21, % of initial ([2]; RT, light, Initial): 100 % of initial
Solution pH (within parenthesis) ([2]; RT, light, Initial): (9.4)
light-induced degradation [2]: light-induced degradation occurs
total impurity peak area ([2]; free C21 solution, samples stored at 5° C., RT/dark and 40° C.): around 2.5 area % of C21 peak area
chemical stability [2]: chemically stable
SMILES: CCCCOC(=O)NS(=O)(=O)c1sc(CC(C)C)cc1-c1ccc(Cn2ccnc2)cc1 [free C21, N-butyloxycarbonyl-3-(4-imidazol-1-ylmethylphenyl)-5-iso-butylthiophene-2-sulfonamide]
